Laboratory results reported in US20190175554A1, “METHOD FOR TREATING PRURITUS AND/OR ITCH” (Neurim Pharmaceuticals (1991) Ltd., priority 2016, published 2019).
“And” between values parts separate entries of the source, which are not always exact repeats. Equal entries are not always repeated. Where two headings read alike, the source gives them in different places.

How the values were obtained:
[1] = system: mice, formalin injected into the right hindpaw; experiment: Formalin test, hindpaw licking time in mice; format: in vivo, mouse; conditions: 100 mg/kg intraperitoneally 30 min before formalin
Method: The anti-pruritus activity of pyrone-indole compounds were assessed using this model.
Method. The noxious stimulus is an injection of dilute formalin under the skin of the dorsal surface of the right hindpaw. The response is the amount of time the animals spend licking the injected paw 5-10 minutes (early phase), or 20-30 minutes (late phase) after the injection of formalin. Mice (N=8 per group) were injected intraperitoneally with test compound (100 mg/kg), or morphine (4 mg/kg), or vehicle. Thirty minutes later, formalin (20 μl 2.5% in water) was injected by the subplantar route into the right hindpaw. Hindpaw licking time was recorded in consecutive 5 minute-intervals during the first 10 minutes (early phase), and from 15 to 35 minutes (late phase) after formalin injection.

[2] = molecular target: T1, TRPV1 (Homo sapiens, UniProt Q8NER1); experiment: TRPV1 calcium influx assay; format: cell-based
T1 sequence (Q8NER1 whole entry, species assumed): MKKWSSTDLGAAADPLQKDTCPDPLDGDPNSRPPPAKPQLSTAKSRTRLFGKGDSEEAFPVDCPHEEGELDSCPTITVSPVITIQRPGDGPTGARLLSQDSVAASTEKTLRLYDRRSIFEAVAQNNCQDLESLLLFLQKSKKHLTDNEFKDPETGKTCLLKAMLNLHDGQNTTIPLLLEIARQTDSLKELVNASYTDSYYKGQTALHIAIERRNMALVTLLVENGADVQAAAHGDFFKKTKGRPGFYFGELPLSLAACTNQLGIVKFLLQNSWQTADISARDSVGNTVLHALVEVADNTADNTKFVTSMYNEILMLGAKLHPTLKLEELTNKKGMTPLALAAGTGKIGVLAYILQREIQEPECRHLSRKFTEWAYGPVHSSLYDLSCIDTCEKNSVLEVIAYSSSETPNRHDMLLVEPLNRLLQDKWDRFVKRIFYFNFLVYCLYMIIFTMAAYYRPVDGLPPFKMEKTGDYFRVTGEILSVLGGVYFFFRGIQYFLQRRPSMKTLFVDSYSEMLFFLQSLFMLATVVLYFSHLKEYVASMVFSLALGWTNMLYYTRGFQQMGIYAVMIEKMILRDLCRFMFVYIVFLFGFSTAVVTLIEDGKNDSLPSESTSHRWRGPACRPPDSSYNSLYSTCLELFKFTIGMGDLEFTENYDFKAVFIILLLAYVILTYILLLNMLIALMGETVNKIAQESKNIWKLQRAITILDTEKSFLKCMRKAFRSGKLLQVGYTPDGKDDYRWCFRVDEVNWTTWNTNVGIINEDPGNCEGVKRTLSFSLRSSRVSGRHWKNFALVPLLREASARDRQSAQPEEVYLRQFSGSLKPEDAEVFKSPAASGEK

[3] = molecular target: T1, TRPV1; experiment: TRPV1 calcium influx assay; format: cell-based; conditions: for inhibitory effect on TRPV1 mediated calcium influx (in words): 10 μM, significant = three or more SD from agonist mean (37.74% inhibition); for inhibition at 0.1 µM / inhibition at 0.5 µM / inhibition at 1 µM / inhibition at 5 µM / inhibition at 10 µM: read-out: Normalized % inhibition; for inhibition at 0.5 µM: Test conc 0.5 μM; for inhibition at 1 µM: Test conc 1 μM; for inhibition at 5 µM: Test conc 5 μM; for inhibition at 10 µM: Test conc 10 μM
Method: Method. The ability of N-[2-(1H-indol-3-yl)-ethyl]-comanilamide, N-[2-(5-methoxy-indol-3-yl)-ethyl]-comanilamide and 2-methyl-4-oxo-4H-pyran-3-yl [2-(5-methoxy-1H-indol-3-yl)ethyl]carbamate to act as antagonists of TRPV1 was evaluated with a calcium influx assay. The signal elicited in the presence of the positive control agonist (0.1 μM capsaicin) was set to 100% and the signal in the presence of the antagonist (0.1 μM capsaicin+3 μM ruthenium red) was set to 0.

[4] = molecular target: T2, hNav1.7 (Homo sapiens, UniProt Q15858); experiment: Block of hNav1.x channels expressed in mammalian cells, voltage protocol; format: cell-based; conditions: blocking effects on hNav1.x channels, Table 3
T2 construct: expressed in transfected cells
T2 sequence (Q15858 whole entry): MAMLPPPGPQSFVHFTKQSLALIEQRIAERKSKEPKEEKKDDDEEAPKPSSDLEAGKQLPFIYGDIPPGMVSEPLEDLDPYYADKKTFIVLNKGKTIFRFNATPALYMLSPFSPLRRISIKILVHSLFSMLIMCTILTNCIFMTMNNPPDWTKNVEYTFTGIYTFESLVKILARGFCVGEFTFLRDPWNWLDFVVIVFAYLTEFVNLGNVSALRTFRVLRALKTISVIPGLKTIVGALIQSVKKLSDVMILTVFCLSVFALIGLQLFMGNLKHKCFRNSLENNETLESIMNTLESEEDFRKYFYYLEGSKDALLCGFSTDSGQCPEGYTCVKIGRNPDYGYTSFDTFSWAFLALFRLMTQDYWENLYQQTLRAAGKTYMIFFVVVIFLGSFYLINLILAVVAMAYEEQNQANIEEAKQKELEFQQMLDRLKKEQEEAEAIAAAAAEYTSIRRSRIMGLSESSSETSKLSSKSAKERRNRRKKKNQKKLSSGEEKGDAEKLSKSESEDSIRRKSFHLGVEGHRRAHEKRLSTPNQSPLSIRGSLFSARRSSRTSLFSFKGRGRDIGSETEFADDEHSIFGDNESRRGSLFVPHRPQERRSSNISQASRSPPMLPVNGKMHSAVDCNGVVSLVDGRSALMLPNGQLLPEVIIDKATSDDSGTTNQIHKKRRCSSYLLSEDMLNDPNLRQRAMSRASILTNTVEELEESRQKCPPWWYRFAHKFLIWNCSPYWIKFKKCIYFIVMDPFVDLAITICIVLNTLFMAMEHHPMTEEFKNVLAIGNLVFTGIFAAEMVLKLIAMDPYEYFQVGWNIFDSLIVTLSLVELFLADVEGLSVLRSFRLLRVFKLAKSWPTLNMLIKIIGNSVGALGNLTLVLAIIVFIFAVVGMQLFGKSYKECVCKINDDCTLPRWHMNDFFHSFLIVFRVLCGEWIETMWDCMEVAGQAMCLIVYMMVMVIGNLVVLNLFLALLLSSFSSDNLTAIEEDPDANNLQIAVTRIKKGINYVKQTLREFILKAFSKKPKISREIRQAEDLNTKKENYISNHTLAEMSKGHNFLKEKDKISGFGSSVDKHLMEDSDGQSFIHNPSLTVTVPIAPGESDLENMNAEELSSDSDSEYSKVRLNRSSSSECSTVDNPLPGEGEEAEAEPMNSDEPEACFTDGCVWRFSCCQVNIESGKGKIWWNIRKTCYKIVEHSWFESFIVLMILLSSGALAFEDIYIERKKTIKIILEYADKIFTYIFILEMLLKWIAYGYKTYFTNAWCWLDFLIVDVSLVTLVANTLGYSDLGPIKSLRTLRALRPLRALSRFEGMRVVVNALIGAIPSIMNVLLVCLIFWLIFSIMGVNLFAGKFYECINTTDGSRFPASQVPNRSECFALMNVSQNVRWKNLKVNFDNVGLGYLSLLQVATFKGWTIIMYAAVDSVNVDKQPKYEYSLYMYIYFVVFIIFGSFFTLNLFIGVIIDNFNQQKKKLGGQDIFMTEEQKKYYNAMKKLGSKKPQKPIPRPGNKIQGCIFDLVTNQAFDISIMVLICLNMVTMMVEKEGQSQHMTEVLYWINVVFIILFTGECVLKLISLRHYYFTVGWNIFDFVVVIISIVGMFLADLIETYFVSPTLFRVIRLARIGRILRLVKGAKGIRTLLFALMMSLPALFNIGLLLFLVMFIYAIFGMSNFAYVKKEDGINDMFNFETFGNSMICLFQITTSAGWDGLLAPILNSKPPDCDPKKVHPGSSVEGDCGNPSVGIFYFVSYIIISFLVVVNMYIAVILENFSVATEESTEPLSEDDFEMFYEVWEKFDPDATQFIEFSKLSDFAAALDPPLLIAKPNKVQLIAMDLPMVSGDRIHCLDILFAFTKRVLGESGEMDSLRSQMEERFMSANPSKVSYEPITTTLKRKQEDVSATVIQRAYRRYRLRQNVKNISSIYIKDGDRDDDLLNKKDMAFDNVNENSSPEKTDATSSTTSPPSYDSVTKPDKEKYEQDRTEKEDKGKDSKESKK
Method: Effects of N-[2-(1H-indol-3-yl)-ethyl]-comanilamide, N-[2-(5-methoxy-indol-3-yl)-ethyl]-comanilamide and 2-methyl-4-oxo-4H-pyran-3-yl [2-(5-methoxy-1H-indol-3-yl)ethyl]carbamate on Nav1.x Channels Expressed in Mammalian Cells
Method. A block of hNav1.x channels was measured using the stimulus voltage pattern shown in FIG. 1; voltage potentials are indicated in Table 2, below. The pulse pattern repeated twice: before and 5 minutes after N-[2-(1H-indol-3-yl)-ethyl]-comanilamide, N-[2-(5-methoxy-indol-3-yl)-ethyl]-comanilamide and 2-methyl-4-oxo-4H-pyran-3-yl[2-(5-methoxy-1H-indol-3-yl)ethyl]carbamate addition and peak current amplitudes at […] was measured (ITP1 and ITP2).

[5] = system: young male subjects, UVB-irradiated skin; experiment: UVB sunburn model in humans, cold pain threshold (CPT); format: in vivo, human
Method: (§1) The anti-pruritus effect of N-[2-(1H-indol-3-yl)-ethyl]-comanilamide was tested using the UVB sunburn model (R. Rolke et al. (2006), Quantitative sensory testing in the German Research Network on neuropathic pain (DFNS): standardized protocol and reference values, Pain, 123, 231-243) used as an art-accepted surrogate model of itch (Andersen et al., Acta Derm Venereol. 2015; 95(7):771-7. Human surrogate models of histaminergic and non-histaminergic itch.).
(§2) Twenty four young male subjects ([…]N-[2-(1H-indol-3-yl)-ethyl]-comanilamide in escalated doses (300 mg-900 mg) and 6 in the placebo group), were exposed to three times the minimal erythema dose (MED) of UVB light on an approximately 4×4 cm area on the upper part of the leg in the morning of Day (−1) pre-dose on Day 1 and 2.5 hours post—dose on the UVB-irradiated area.
(§3) UVB irradiation causes skin inflammation which is noxious and elicits pronounced inflammation related temperature and mechanical hyperalgesia at the UVB-irradiated site. This hyperalgesia peaks at about 20-24 hours post irradiation after which it slowly subsides. Quantitative sensory testing (QST) assesses characteristic sensory patterns in pain and pruritus models.
(§4) The UVB irradiated skin was obtained by irradiating the marked area (approximately 4×4 cm) of the skin of the upper part of the right leg by three times the MED as determined during the screening. This was done approximately 20 hours prior to dosing.
Cold pain thresholds (CPT) were determined. The mean threshold temperature of five consecutive measurements was calculated. All thresholds were obtained with ramped stimuli (1 C/s) that were terminated when the subject pressed a button.

[6] = system: young male subjects, UVB-irradiated skin; experiment: UVB sunburn model in humans, mechanical detection threshold (MDT) to von Frey hairs; format: in vivo, human; conditions: baseline Day (−1) before the sunburn; for MDT feel sensation, Post sunburn - Change from Baseline: pre-dose
Method: as §1, §2, §3, §4
Mechanical detection threshold (MDT) to von Frey hairs was assessed by using a standardized set of modified von Frey hairs (Optihair; Marstock Nervtest, Marburg, Germany) exerting forces between 0.25 and 512 mN (rounded tip, 0.5 mm in diameter). Thresholds were determined by the method of limits with the geometric mean of a series of 5 ascending and descending stimulus intensities.

[7] = Test conc 0.1 μM, vs 0.1 μM capsaicin
[8] = read-out: Normalized % inhibition

Row | Normalized % Activation ([2]; Test conc 0.1 μM) | Normalized % Activation ([2]; Test conc 0.5 μM) | Normalized % Activation ([2]; Test conc 1 μM) | Normalized % Activation ([2]; Test conc 5 μM) | Normalized % Activation ([2]; Test conc 10 μM) | inhibitory effect on TRPV1 mediated calcium influx (in words) [3] | inhibition at 0.1 µM [3, 7] | inhibition at 0.5 µM ([3]; vs 0.1 μM capsaicin) | inhibition at 1 µM ([3]; vs 0.1 μM capsaicin) | inhibition at 5 µM ([3]; vs 0.1 μM capsaicin) | inhibition at 10 µM ([3]; vs 0.1 μM capsaicin) | SMILES | also measured
1 | 23.07% | 11.93% | 10.51% | 8.71% | 10.13% | significant inhibitory effect | 9.88% | 2.44% | 31.1% | 26.1% | 37.7% | O=C(NCCc1c[nH]c2ccccc12)c1cc(=O)cco1 [N-[2-(1H-indol-3-yl)-ethyl]-comanilamide] | inhibition of the licking response, early phase ([1]; 100 mg/kg): 57% and 38%; inhibition of the licking response, late phase ([1]; 100 mg/kg): 90% and 62%; selectivity among hNav1.x channels (in words) [4]: preferential inhibition of Nav1.7 channels; CPT, Post sunburn ([5]; 600 mg group, after UVB, pre-dose): 16.03 °C; CPT, Pre sunburn ([5]; 600 mg group, before UVB and before dosing): 5.55 °C; CPT, 2.5 h Post Drug Administration ([5]; 600 mg, 2.5 h post dose): 12.75 °C; time of peak response post dosing ([5]; human UVB sunburn model, analgesic/anti-pruritus effects): 2.5 h; MDT feel sensation, Post sunburn - Change from Baseline ([6]; 300 mg group): −10.92 mN; MDT feel sensation, 2.5 h post Drug administration - Change from Baseline ([6]; 300 mg): −12.13 mN; MDT feel sensation, Post sunburn - Change from Baseline ([6]; 600 mg group): −3.52 mN; MDT feel sensation, 2.5 h post Drug administration - Change from Baseline ([6]; 600 mg): −0.017 mN; MDT feel sensation, Post sunburn - Change from Baseline ([6]; 900 mg group): −7.24 mN; MDT feel sensation, 2.5 h post Drug administration - Change from Baseline ([6]; 900 mg): 0.84 mN
2 | 18.12% | 11.95% | 14.04% | 12.92% | 13.67% | significant inhibitory effect | 15.2% | 1.19% | 36.4% | 35.4% | 42.6% | COc1ccc2[nH]cc(CCNC(=O)c3cc(=O)cco3)c2c1 [N-[2-(5-methoxy-indol-3-yl)-ethyl]-comanilamide] | 

Row | SMILES | Normalized % Activation ([2]; Test conc 0.1 μM) | Normalized % Activation ([2]; Test conc 0.5 μM) | Normalized % Activation ([2]; Test conc 1 μM) | Normalized % Activation ([2]; Test conc 5 μM) | Normalized % Activation ([2]; Test conc 10 μM) | inhibitory effect on TRPV1 mediated calcium influx (in words) [3] | inhibition at 0.1 µM [3, 7] | inhibition at 0.5 µM ([3]; vs 0.1 μM capsaicin) | inhibition at 1 µM ([3]; vs 0.1 μM capsaicin) | inhibition at 5 µM ([3]; vs 0.1 μM capsaicin) | inhibition at 10 µM ([3]; vs 0.1 μM capsaicin) | also measured
3 | COc1ccc2[nH]cc(CCNC(=O)Oc3c(C)occc3=O)c2c1 [2-methyl-4-oxo-4H-pyran-3-yl [2-(5-methoxy-1H-indol-3-yl)ethyl]carbamate] | 12.65% | 9.58% | 12.16% | 5.75% | 12.26% | significant inhibitory effect |  |  |  |  |  | inhibition of the licking response, early phase [1]: 54%; inhibition of the licking response, late phase [1]: 86%; inhibition at 0.5 µM [2, 8]: 23.6%; inhibition at 1 µM [2, 8]: 45.1%; inhibition at 5 µM [2, 8]: 44.6%; inhibition at 10 µM [2, 8]: 41.5%; inhibition at 0.1 µM [3]: -1.78%
